Reference: US8592468B2, “Bacterial thioredoxin reductase inhibitors and methods for use thereof” (Thioredoxin Systems AB, priority 2006, dated 2013)
In brackets after ≈: the same amount, converted by molar mass.

Columns and labels:
[1] = tested on: Helicobacter pylori; assay: Bactericidal effects of ebselen on Helicobacter pylori (MBC); assay type: cell-based; parameters: key to Sensitivity to ebselen: S: sensitive; R: resistant
Method: The bacteria were cultured in 96-well microtiter plates with a microaerophilic environment at 37° C. for 4 days. The whole amount of the wells was then plated on GC agar plates containing different concentrations of ebselen. Ebselen was diluted in a two-fold series (0.39-200 μg/ml), the minimal bactericidal concentration (MBC) was determined by the first concentration with a total bactericidal effect.

[2] = tested on: E. coli DHB4 strains; assay: Sensitivity of growth of E. coli DHB4 strains to ebselen (A600); assay type: cell-based
Method: Bacterial cells were grown in 5 mL cultures at 37° C., 120 rpm in 15 mL closed tubes containing Lutria-Bertani (LB) or M9 minimal media supplemented with 50 μg/ml Leu, Ile, 1× basal medium Eagle's vitamin solution (Invitrogen) and 2 μg/mL nicotinic acid. For the experiments regarding sensitivity of growth to ebselen, cells were initially grown overnight at 37° C. at the respective medium. The next day, equal cell numbers (as determined by A600) with dilutions of at least 1:50 were used to start 5 mL cultures containing different concentrations of Ebselen. Ebselen stock solutions were freshly prepared in DMSO. Extra DMSO was added to the cultures so that the total volumes of DMSO were the same per culture even at different final concentrations of Ebselen. Growth inhibition assays were carried out also on M9 minimal plates. The plates were covered with minimal top agar that contained equal cell number for all the strains examined. These were derived from overnight liquid cultures in M9 medium.
Sensitivity to ebselen was measured by inhibition of growth as determined by scattering (absorbance) at 600 nm at different times after inoculation.

In the case of O=c1c2ccccc2[se]n1-c1ccccc1 [EbSe 6, 2-phenyl-1,2-benzisoselenazol-3(2H)-one], the Sensitivity to ebselen ([1]; strain MR G162, ebselen 0.78 μg/ml) is reported as “R”, the Sensitivity to ebselen ([1]; strain MR G162, ebselen 1.56 μg/ml) is reported as “R” and the Sensitivity to ebselen ([1]; strain MR G162, ebselen 3.125 μg/ml) is reported as “R”. For the same molecule, the Sensitivity to ebselen ([1]; strain MR G162, ebselen 6.25 μg/ml) was “R”, the Sensitivity to ebselen ([1]; strain MR G162, ebselen 25 μg/ml) was “S” and the Sensitivity to ebselen ([1]; strain MR G162, ebselen 50 μg/ml) was “S”. The Sensitivity to ebselen ([1]; strain MR G162, ebselen 100 μg/ml) was “S”, the Sensitivity to ebselen ([1]; strain MR G193, ebselen 0.78 μg/ml) was “R” and the Sensitivity to ebselen ([1]; strain MR G193, ebselen 1.56 μg/ml) was “R”. The Sensitivity to ebselen ([1]; strain MR G193, ebselen 3.125 μg/ml) was “R”, the Sensitivity to ebselen ([1]; strain MR G193, ebselen 6.25 μg/ml) was “R” and the Sensitivity to ebselen ([1]; strain MR G193, ebselen 25 μg/ml) was “S”. The Sensitivity to ebselen ([1]; strain MR G193, ebselen 50 μg/ml) was “S”, the Sensitivity to ebselen ([1]; strain MR G193, ebselen 100 μg/ml) was “S” and the Sensitivity to ebselen ([1]; strain MS G6, ebselen 0.78 μg/ml) was “R”. For the same molecule, the Sensitivity to ebselen ([1]; strain MS G6, ebselen 1.56 μg/ml) was “R”, the Sensitivity to ebselen ([1]; strain MS G6, ebselen 3.125 μg/ml) was “S” and the Sensitivity to ebselen ([1]; strain MS G6, ebselen 6.25 μg/ml) was “S”. For the same molecule, the Sensitivity to ebselen ([1]; strain MS G6, ebselen 25 μg/ml) was “S”, the Sensitivity to ebselen ([1]; strain MS G6, ebselen 50 μg/ml) was “S” and the Sensitivity to ebselen ([1]; strain MS G6, ebselen 100 μg/ml) was “S”. For the same molecule, the Sensitivity to ebselen ([1]; strain MS G142, ebselen 0.78 μg/ml) was “R”, the Sensitivity to ebselen ([1]; strain MS G142, ebselen 1.56 μg/ml) was “R” and the Sensitivity to ebselen ([1]; strain MS G142, ebselen 3.125 μg/ml) was “R”. The Sensitivity to ebselen ([1]; strain MS G142, ebselen 6.25 μg/ml) was “S”, the Sensitivity to ebselen ([1]; strain MS G142, ebselen 25 μg/ml) was “S” and the Sensitivity to ebselen ([1]; strain MS G142, ebselen 50 μg/ml) was “S”. For the same molecule, the Sensitivity to ebselen ([1]; strain MS G142, ebselen 100 μg/ml) was “S”, the “minimal bactericidal concentration (MBC)” value ([1]; two macrolide sensitive strains, listed as ebselen) was 6.25 mg/L (≈ 22.8 µM) and the “wild type bacteria compared with gor^− and gshA^− strains” value [2] was “more resistant”. The “sensitivity of gshA^−trxA^− strain” value ([2]; LB medium) was “more sensitive”, the “sensitivity of strain trxA^−C^− compared with wild type” value ([2]; LB medium) was “similar, if not less” and the “growth of gor^− and gshA^− strains in presence of ebselen” value ([2]; minimal media (M9)) was “hardly grew”.
